How the values were obtained:
[1] = tested on: MDR1 (P-gp); assay: Permeability from basolateral to apical side in dog MDCK cells expressing human MDR-1 gene; format: ADME, cell-based, Canis lupus familiaris; conditions: read-out: permeability
[2] = tested on: MDR1 (P-gp); assay: Efflux ratio of permeability from basolateral to apical side to apical to basolateral side of dog MDCK cells expressing human MDR1; format: ADME, cell-based, Canis lupus familiaris
[3] = tested on: MDR1 (P-gp); assay: Permeability from apical to basolateral side in dog MDCK cells expressing human MDR-1 gene; format: ADME, cell-based, Canis lupus familiaris; conditions: read-out: permeability
[4] = molecular target: T1, Beta-secretase 1 (Homo sapiens, UniProt P56817); assay: Inhibition of human BACE-1
[5] = molecular target: Cathepsin D (Homo sapiens, UniProt P07339); assay: Inhibition of human cathepsin D
[6] = Dissociation constant, pKa of the compound; format: physicochemical
[7] = tested on: Brain; assay: Drug level in brain of mouse at 2 umol/kg, iv; format: ADME, organism-based; conditions: in vivo, read-out: Drug uptake
[8] = tested on: Plasma; assay: Drug level in plasma of mouse at 2 umol/kg, iv; format: ADME; conditions: read-out: Drug uptake
[9] = Metabolic stability in rat liver microsomes assessed as half life; format: ADME, Microsome
[10] = molecular target: T1, Beta-secretase 1; assay: Inhibition of human BACE-1-mediated amyloid beta 40 release in APP-transfected […] cells; format: cell-based
[11] = species: Homo sapiens; assay: Selectivity ratio of IC50 for human cathepsin D to IC50 for human BACE-1

T1 sequence (P56817 whole entry): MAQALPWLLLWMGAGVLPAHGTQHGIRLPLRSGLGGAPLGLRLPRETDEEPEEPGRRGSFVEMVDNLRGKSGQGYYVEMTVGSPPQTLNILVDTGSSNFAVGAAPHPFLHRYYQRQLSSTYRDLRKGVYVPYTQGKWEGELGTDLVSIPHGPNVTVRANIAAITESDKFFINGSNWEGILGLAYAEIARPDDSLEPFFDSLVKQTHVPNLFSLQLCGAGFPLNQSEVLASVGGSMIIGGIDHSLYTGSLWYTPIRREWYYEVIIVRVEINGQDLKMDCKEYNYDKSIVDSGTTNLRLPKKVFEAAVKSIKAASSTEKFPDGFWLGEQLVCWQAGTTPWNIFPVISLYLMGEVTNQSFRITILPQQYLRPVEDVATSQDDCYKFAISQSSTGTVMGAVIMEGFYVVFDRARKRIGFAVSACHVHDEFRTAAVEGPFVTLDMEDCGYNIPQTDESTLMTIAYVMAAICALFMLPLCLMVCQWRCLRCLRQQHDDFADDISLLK
Sequence of Cathepsin D (P07339 65-162 limits assumed): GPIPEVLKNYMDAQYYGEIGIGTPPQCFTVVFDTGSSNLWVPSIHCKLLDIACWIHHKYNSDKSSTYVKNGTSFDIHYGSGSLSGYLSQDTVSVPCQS
Sequence of Cathepsin D (P07339 169-412 limits assumed): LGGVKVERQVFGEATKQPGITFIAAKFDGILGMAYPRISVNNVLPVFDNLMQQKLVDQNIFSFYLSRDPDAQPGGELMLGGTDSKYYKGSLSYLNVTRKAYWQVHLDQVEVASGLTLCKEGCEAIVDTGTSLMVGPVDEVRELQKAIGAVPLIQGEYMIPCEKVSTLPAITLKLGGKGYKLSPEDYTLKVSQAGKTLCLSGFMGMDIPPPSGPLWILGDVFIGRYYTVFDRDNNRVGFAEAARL

SMILES | Papp B→A [1] | efflux ratio [2] | Papp A→B [3] | IC50 [4] | IC50 [5] | pKa [6] | concentration [7] | concentration [8] | half-life [9] | IC50 [10] | Ratio IC50 [11]
O=S1(=O)C[C@@H](Cc2ccc(O)c(Br)c2)[C@H](O)[C@@H](NCc2cccc(C3CC3)c2)C1 | – | – | – | – | – | 5.7 | – | – | – | – | –
CCCOCc1cccc(C[C@@H]2CS(=O)(=O)C[C@H](NCc3cccc(C(C)C)c3)[C@H]2O)c1 (racemic) | 13 ×10⁻⁶ cm/s | 1.8 | 7 ×10⁻⁶ cm/s | 1100 nM | 900 nM | – | – | – | – | – | –
CC(=O)N[C@@H](Cc1cc(F)cc(F)c1)[C@H](O)CNCc1cccc(C(C)C)c1 | 41 ×10⁻⁶ cm/s | 18 | 2.2 ×10⁻⁶ cm/s | 3200 nM | 4700 nM | – | – | – | – | – | –
CNC(=O)Oc1ccc(C[C@@H]2CS(=O)(=O)C[C@H](NCc3cccc(C(C)C)c3)[C@H]2O)cc1Br | 88 ×10⁻⁶ cm/s | 23 | 3.8 ×10⁻⁶ cm/s | 60 nM | 370 nM | – | – | – | – | – | –
O=S1(=O)C[C@@H](Cc2ccc(O)c(Br)c2)[C@H](O)[C@@H](NCc2ccccc2)C1 | – | – | – | 66000 nM | – | – | – | – | – | – | –
O=S1(=O)C[C@@H](Cc2ccc(O)c(Br)c2)[C@H](O)[C@@H](NCc2cc(Cl)cc(Cl)c2)C1 | – | – | – | 4200 nM | – | – | – | – | – | – | –
CCCOc1cccc(C[C@@H]2CS(=O)(=O)C[C@H](NCc3cccc(C(C)C)c3)[C@H]2O)c1 (racemic) | 7.9 ×10⁻⁶ cm/s | 1.4 | 5.7 ×10⁻⁶ cm/s | 2300 nM | 2000 nM | – | – | – | – | – | –
Cc1cccc(Cc2cc(C[C@@H]3CS(=O)(=O)C[C@H](NCc4cccc(C(C)C)c4)[C@H]3O)ccc2O)c1 (racemic) | – | – | – | 6200 nM | 7100 nM | – | – | – | – | – | –
CCCN1C(=O)OC[C@@H]1Cc1cc(C[C@@H]2CS(=O)(=O)C[C@H](NCc3cccc(C(C)C)c3)[C@H]2O)ccc1O | 26 ×10⁻⁶ cm/s | 19 | 1.4 ×10⁻⁶ cm/s | – | 6400 nM | – | < 50 nM | 670 nM | 4 min | – | –
CC(C)c1cccc(CN[C@H]2CS(=O)(=O)C[C@@H](Cc3ccc(O)cc3)[C@@H]2O)c1 (racemic) | 37 ×10⁻⁶ cm/s | 4.2 | 9 ×10⁻⁶ cm/s | 1800 nM | 5400 nM | – | – | – | – | – | –
N[C@H]1CS(=O)(=O)C[C@@H](Cc2ccc(O)c(Br)c2)[C@@H]1O | – | – | – | > 100000 nM | – | – | – | – | – | – | –
CC(C)c1cccc(CN[C@H]2CS(=O)(=O)C[C@@H](Cc3ccccc3)[C@@H]2O)c1 (racemic) | 24 ×10⁻⁶ cm/s | 1.2 | 19 ×10⁻⁶ cm/s | 1100 nM | 1900 nM | – | – | – | – | – | –

Continued, values first:

Papp B→A [1] | efflux ratio [2] | Papp A→B [3] | IC50 [4] | IC50 [5] | pKa [6] | concentration [7] | concentration [8] | half-life [9] | IC50 [10] | Ratio IC50 [11] | SMILES
18 ×10⁻⁶ cm/s | 4.4 | 4.2 ×10⁻⁶ cm/s | 190 nM | 1800 nM | – | – | – | – | – | – | CCCc1cc(C[C@@H]2CS(=O)(=O)C[C@H](NCc3cccc(C(C)C)c3)[C@H]2O)ccc1O
– | – | – | 4300 nM | – | – | – | – | – | – | – | CC(C)c1ccnc(CN[C@H]2CS(=O)(=O)C[C@@H](Cc3ccc(O)c(Br)c3)[C@@H]2O)c1
9.7 ×10⁻⁶ cm/s | 2.6 | 3.7 ×10⁻⁶ cm/s | 2800 nM | 2400 nM | – | – | – | – | – | – | COc1ccc(C[C@@H]2CS(=O)(=O)C[C@H](NCc3cccc(C(C)C)c3)[C@H]2O)cc1Br
28 ×10⁻⁶ cm/s | 32 | 0.9 ×10⁻⁶ cm/s | 990 nM | 1700 nM | – | – | – | – | – | – | CC(C)c1cccc(CN[C@H]2CS(=O)(=O)C[C@@H](Cc3ccc(O)c(CCO)c3)[C@@H]2O)c1
– | – | – | 55000 nM | – | 7.1 | – | – | – | – | – | CC(C)c1cccc(CN[C@H]2COC[C@@H](Cc3ccc(O)c(Br)c3)[C@@H]2O)c1
7.7 ×10⁻⁶ cm/s | 1.4 | 5.4 ×10⁻⁶ cm/s | 760 nM | 2300 nM | – | – | – | – | – | – | CC(C)c1cccc(CN[C@H]2CS(=O)(=O)C[C@@H](Cc3cccc(Br)c3)[C@@H]2O)c1 (racemic)
30 ×10⁻⁶ cm/s | 17 | 1.8 ×10⁻⁶ cm/s | 1200 nM | 2100 nM | – | – | – | – | – | – | CC(C)c1cccc(CN[C@H]2CS(=O)(=O)C[C@@H](Cc3ccc(O)c(CO)c3)[C@@H]2O)c1
– | – | – | 1400 nM | 670 nM | – | – | – | – | 8500 nM | – | CC(C)Oc1cccc(CN[C@H]2CS(=O)(=O)C[C@@H](Cc3ccc(O)c(Br)c3)[C@@H]2O)c1
45 ×10⁻⁶ cm/s | 3.1 | 15 ×10⁻⁶ cm/s | 370 nM | 2400 nM | – | – | – | – | – | – | CCc1cc(C[C@@H]2CS(=O)(=O)C[C@H](NCc3cccc(C(C)C)c3)[C@H]2O)ccc1O
33 ×10⁻⁶ cm/s | 3 | 11 ×10⁻⁶ cm/s | 300 nM | 1200 nM | – | 210 nM | 1030 nM | 3 min | 1500 nM | 10 | CC(C)c1cccc(CN[C@H]2CS(=O)(=O)C[C@@H](Cc3ccc(O)c(Br)c3)[C@@H]2O)c1
16 ×10⁻⁶ cm/s | 2.1 | 7.7 ×10⁻⁶ cm/s | 55 nM | 420 nM | – | 180 nM | 320 nM | 6 min | 550 nM | – | CC(C)(C)c1cccc(CN[C@H]2CS(=O)(=O)C[C@@H](Cc3ccc(O)c(Br)c3)[C@@H]2O)c1
4.2 ×10⁻⁶ cm/s | 5.5 | 0.8 ×10⁻⁶ cm/s | 150 nM | 1900 nM | – | – | – | – | – | – | CCCCc1cc(C[C@@H]2CS(=O)(=O)C[C@H](NCc3cccc(C(C)C)c3)[C@H]2O)ccc1O
